# Reference: PubChem BioAssay (NCI)
#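 48-hour exposure; five concentrations; linearly interpolated endpoints. TGI: concentration producing complete growth inhibition.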
# How the values were obtained:
# Experiment in all cases: NCI anticancer screen, dose series, 48 h
# 786-0 renal = tested on: 786-0 renal
# A498 renal = tested on: A498 renal
# A549 NSCLC = tested on: A549 NSCLC
# ACHN renal = tested on: ACHN renal
# CAKI-1 renal = tested on: CAKI-1 renal
# CCRF-CEM leukemia = tested on: CCRF-CEM leukemia
# COLO 205 colon = tested on: COLO 205 colon
# DU-145 prostate = tested on: DU-145 prostate
# HCT-116 colon = tested on: HCT-116 colon
# HCT-15 colon = tested on: HCT-15 colon
# HL-60(TB) leukemia = tested on: HL-60(TB) leukemia
# HOP-62 NSCLC = tested on: HOP-62 NSCLC
# HOP-92 NSCLC = tested on: HOP-92 NSCLC
# HT29 colon = tested on: HT29 colon
# K-562 leukemia = tested on: K-562 leukemia
# KM12 colon = tested on: KM12 colon
# M14 melanoma = tested on: M14 melanoma
# MCF7 breast = tested on: MCF7 breast
# MDA-MB-231 breast = tested on: MDA-MB-231 breast
# MDA-MB-435 = tested on: MDA-MB-435
# MOLT-4 leukemia = tested on: MOLT-4 leukemia
# NCI-H226 lung = tested on: NCI-H226 lung
# NCI-H23 lung = tested on: NCI-H23 lung
# NCI-H460 lung = tested on: NCI-H460 lung
# NCI/ADR-RES ovarian = tested on: NCI/ADR-RES ovarian
# OVCAR-3 ovarian = tested on: OVCAR-3 ovarian
# OVCAR-4 ovarian = tested on: OVCAR-4 ovarian
# OVCAR-5 ovarian = tested on: OVCAR-5 ovarian
# OVCAR-8 ovarian = tested on: OVCAR-8 ovarian
# PC-3 prostate = tested on: PC-3 prostate
# RPMI-8226 leukemia = tested on: RPMI-8226 leukemia
# SF-268 CNS = tested on: SF-268 CNS
# SF-295 CNS = tested on: SF-295 CNS
# SF-539 CNS = tested on: SF-539 CNS
# SK-MEL-2 melanoma = tested on: SK-MEL-2 melanoma
# SK-MEL-28 melanoma = tested on: SK-MEL-28 melanoma
# SK-MEL-5 melanoma = tested on: SK-MEL-5 melanoma
# SK-OV-3 ovarian = tested on: SK-OV-3 ovarian
# SN12C renal = tested on: SN12C renal
# SNB-19 CNS = tested on: SNB-19 CNS
# SNB-75 CNS = tested on: SNB-75 CNS
# SR leukemia = tested on: SR leukemia
# SW-620 colon = tested on: SW-620 colon
# T-47D breast = tested on: T-47D breast
# TK-10 renal = tested on: TK-10 renal
# U251 CNS = tested on: U251 CNS
# UACC-257 melanoma = tested on: UACC-257 melanoma
# UACC-62 melanoma = tested on: UACC-62 melanoma
# UO-31 renal = tested on: UO-31 renal
compound,measurement,setting,value
CC(C)[Si](OC12CCC(CC1O)CC2CO)(C(C)C)C(C)C (centres undefined),TGI,786-0 renal,22.3 µM
same,TGI,A498 renal,32 µM
same,TGI,A549 NSCLC,22.1 µM
same,TGI,ACHN renal,27.2 µM
same,TGI,CAKI-1 renal,39.3 µM
same,TGI,CCRF-CEM leukemia,31.6 µM
same,TGI,COLO 205 colon,42.2 µM
same,TGI,DU-145 prostate,35.5 µM
same,TGI,HCT-116 colon,20.7 µM
same,TGI,HCT-15 colon,27.1 µM
same,TGI,HL-60(TB) leukemia,6.73 µM
same,TGI,HOP-62 NSCLC,29.9 µM
same,TGI,HOP-92 NSCLC,29 µM
same,TGI,HT29 colon,28.9 µM
same,TGI,K-562 leukemia,> 100 µM
same,TGI,KM12 colon,25.3 µM
same,TGI,M14 melanoma,28.4 µM
same,TGI,MCF7 breast,24.4 µM
same,TGI,MDA-MB-231 breast,45.6 µM
same,TGI,MDA-MB-435,31.7 µM
same,TGI,MOLT-4 leukemia,44.6 µM
same,TGI,NCI-H226 lung,33.6 µM
same,TGI,NCI-H23 lung,25.4 µM
same,TGI,NCI-H460 lung,25.2 µM
same,TGI,NCI/ADR-RES ovarian,28.3 µM
same,TGI,OVCAR-3 ovarian,27.6 µM
same,TGI,OVCAR-4 ovarian,23.7 µM
same,TGI,OVCAR-5 ovarian,31.2 µM
same,TGI,OVCAR-8 ovarian,29.7 µM
same,TGI,PC-3 prostate,24.1 µM
same,TGI,RPMI-8226 leukemia,38.1 µM
same,TGI,SF-268 CNS,27.9 µM
same,TGI,SF-295 CNS,24.6 µM
same,TGI,SF-539 CNS,38 µM
same,TGI,SK-MEL-2 melanoma,29.3 µM
same,TGI,SK-MEL-28 melanoma,40.8 µM
same,TGI,SK-MEL-5 melanoma,47.6 µM
same,TGI,SK-OV-3 ovarian,27.5 µM
same,TGI,SN12C renal,60.6 µM
same,TGI,SNB-19 CNS,28.6 µM
same,TGI,SNB-75 CNS,26.8 µM
same,TGI,SR leukemia,38.5 µM
same,TGI,SW-620 colon,52.4 µM
same,TGI,T-47D breast,25.7 µM
same,TGI,TK-10 renal,27.5 µM
same,TGI,U251 CNS,28 µM
same,TGI,UACC-257 melanoma,26.6 µM
same,TGI,UACC-62 melanoma,28.9 µM
same,TGI,UO-31 renal,26.8 µM
